Measurements published in article PMC5867211 (Archives of toxicology, 2017).
Entries after “also recorded” stand apart in the source; their conditions may differ. Like-named read-outs stand apart in the source and are kept apart here.

Assays:
Hep3B cells [1] = experiment: Metabolism-induced toxicity on DataChip/MetaChip; details: for Change of toxicity in All Mix vs. parent compound: All Mix vs. no enzyme, 3D Hep3B on chip; for CC50: Homo sapiens, Hep3B
humans = details: previously categorized; ref Xu et al. 2008; cited from earlier work
[2] = tested on: Hep3B human hepatoma cell line; experiment: 2D cell viability; type: cell-based; details: 72 h, read-out: IC50, 2D cultured Hep3B cells in 96-well plates
Hep3B cells [3] = tested on: Hep3B cells
[4] = read-out: 1000* Human Cmax; 1000-fold in vivo human Cmax; cited from earlier work
in vitro = details: human

Structure (SMILES) | DILI category (humans) | IC50 ([2]; Homo sapiens, Hep3B) [µM] | Cmax [4] [nM] | further results
CC(C)C(=O)Nc1ccc([N+](=O)[O-])c(C(F)(F)F)c1 [Flutamide] | P2 | 45 ± 18 | – | Change of toxicity in All Mix vs. parent compound (Hep3B cells [1]): statistically less toxicity
O=C1CC2(CCCC2)CC(=O)N1CCCCN1CCN(c2ncccn2)CC1 [Buspirone] | N1 | 170 ± 74 | – | –
C[C@@](Cc1ccc(O)c(O)c1)(NN)C(=O)O [Carbidopa] | N1 | 46 ± 28 | 660 | Change of toxicity in P450 Mix vs. parent compound (Hep3B cells [3]): activated; Change of toxicity in All Mix vs. parent compound (Hep3B cells [1]): augmented toxicity
CNCCC(Oc1ccc(C(F)(F)F)cc1)c1ccccc1 (stereo not shown) [Fluoxetine] | N3 | – | 97 | –
O=C(O)Cc1ccccc1Nc1c(Cl)cccc1Cl [Diclofenac] | P2 | 120 ± 51 | – | –
C[C@]12CC[C@@H]3c4ccc(O)cc4CC[C@H]3[C@@H]1CC[C@@H]2O [Estradiol] | N3 | 53 ± 20 | 0.1 | –
CN(C)CCCN1c2ccccc2CCc2ccccc21 [Imipramine] | P2 | 5 ± 2 | – | –
CCCNC(=O)NS(=O)(=O)c1ccc(Cl)cc1 [Chlorpropamide] | P2 | 300 | 123000 | –
Cc1ccc(N(CC2=NCCN2)c2cccc(O)c2)cc1 [Phentolamine] | – | 48 ± 9 | – | –
O=c1n(CCCN2CCN(c3cccc(Cl)c3)CC2)nc2ccccn12 [Trazodone] | P2 | – | – | –
Cc1nc2n(c(=O)c1CCN1CCC(c3noc4cc(F)ccc34)CC1)CCCC2 [Risperidone] | P2 | – | – | –
Nc1ccc(/N=N/c2ccccc2)c(N)n1 [Phenazopyridine] | P2 | 55 ± 13 | 124 | –
CC(Cc1ccc(O)cc1)NCC(O)c1cc(O)cc(O)c1 (stereo not shown) [Fenoterol] | P2 | 300 | 0.6 | CC50 (Hep3B cells [1]; read-out: IC50, 3D cultured Hep3B cells on the Data/MetaChip, All Mix): 1200 µM; CC50 (Hep3B cells [1]; read-out: IC50, 3D cultured Hep3B cells on the Data/MetaChip, HLM): 1200 µM; CC50 (Hep3B cells [1]; read-out: IC50, 3D cultured Hep3B cells on the Data/MetaChip, No Enzyme): 1200 µM; IC50 (in vitro): 290 ± 140 µM
COc1ccccc1Oc1c(NS(=O)(=O)c2ccc(C(C)(C)C)cc2)nc(-c2ncccn2)nc1OCCO [Bosentan] | P1 | 55 ± 20 | – | –
CC(=O)Nc1ccc(O)cc1 [Acetaminophen] | P1 | 300 | – | Change of toxicity in P450 Mix vs. parent compound (Hep3B cells [3]): metabolism-induced toxicity; Change of toxicity in All Mix vs. parent compound (Hep3B cells [1]): metabolism-induced toxicity
CCc1oc2ccccc2c1C(=O)c1cc(Br)c(O)c(Br)c1 [Benzbromarone] | P1 | 58 ± 22 | – | –
CN(C)CCCN1c2ccccc2Sc2ccccc21 [Promazine] | N3 | 21 ± 3 | 490 | –
Cc1cccc(Nc2ccccc2C(=O)O)c1C [Mefenamic acid] | P2 | 260 ± 74 | – | Change of toxicity in All Mix vs. parent compound (Hep3B cells [1]): statistically less toxicity
CC(CCc1ccccc1)NCC(O)c1ccc(O)c(C(N)=O)c1 (stereo not shown) [Labetalol] | P2 | 150 ± 34 | – | –
CCCOc1ccc2[nH]c(NC(=O)OC)nc2c1 [Oxybendazole] | O1 | – | 30 | Change of toxicity in All Mix vs. parent compound (Hep3B cells [1]): augmented toxicity; IC50 ([2]; 2D monolayer, no enzyme, MTT): 24 ± 18 µM
CC1=C(CC(=O)O)c2cc(F)ccc2/C1=C\c1ccc([S+](C)[O-])cc1 (stereo not shown) [Sulindac] | P2 | 300 | – | Change of toxicity in All Mix vs. parent compound (Hep3B cells [1]): statistically less toxicity; also recorded: increased IC50
